Experimental data taken from patent US6638973B2, “Taxane formulations” (FSU Research Foundation, Inc., priority 2000, dated 2003).

System: HCT116 cells
Experiment: In vitro cytotoxicity measured by the cell colony formation assay
Type: cell-based
Conditions: HCT116 cells, 72 h incubation with drug, colonies counted after 7 days; ID50 = drug concentration producing 50% inhibition of colony formation; read-out: IN VITRO ID 50 (nm) HCT116
Method in brief: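 Colony-forming survival was scored 7 days after a 72 h, 37 °C compound exposure followed by washout into fresh medium.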

SMILES	IC50 [nM]
CCOC(=O)O[C@H]1C(=O)[C@@]2(C)C([C@H](OC(=O)c3ccccc3)[C@]3(O)C[C@H](OC(=O)[C@H](O)[C@@H](NC(=O)c4ccccc4)c4cccs4)C(C)=C1C3(C)C)[C@]1(OC(C)=O)CO[C@@H]1C[C@@H]2O (stereo partly drawn) [Compound 2972]	< 10
CCOC(=O)N[C@@H](c1cccs1)[C@@H](O)C(=O)O[C@H]1C[C@@]2(O)[C@@H](OC(=O)c3ccccc3)C3[C@](C)(C(=O)[C@H](OC(=O)OCC)C(=C1C)C2(C)C)[C@@H](O)C[C@H]1OC[C@@]31OC(C)=O (stereo partly drawn) [Compound 2988]	< 1
CCOC(=O)O[C@H]1C(=O)[C@@]2(C)C([C@H](OC(=O)c3ccccc3)[C@]3(O)C[C@H](OC(=O)[C@H](O)[C@@H](NC(=O)OC(C)C)c4cccs4)C(C)=C1C3(C)C)[C@]1(OC(C)=O)CO[C@@H]1C[C@@H]2O (stereo partly drawn) [Compound 2999]	< 1
CCOC(=O)O[C@H]1C(=O)[C@@]2(C)C([C@H](OC(=O)c3ccccc3)[C@]3(O)C[C@H](OC(=O)[C@H](O)[C@@H](NC(=O)OCC(C)C)c4cccs4)C(C)=C1C3(C)C)[C@]1(OC(C)=O)CO[C@@H]1C[C@@H]2O (stereo partly drawn) [Compound 3003]	< 10
CCOC(=O)O[C@H]1C(=O)[C@@]2(C)C([C@H](OC(=O)c3ccccc3)[C@]3(O)C[C@H](OC(=O)[C@H](O)[C@@H](NC(=O)c4ccco4)c4cccs4)C(C)=C1C3(C)C)[C@]1(OC(C)=O)CO[C@@H]1C[C@@H]2O (stereo partly drawn) [Compound 3011]	< 1
CCOC(=O)O[C@H]1C(=O)[C@@]2(C)C([C@H](OC(=O)c3ccccc3)[C@]3(O)C[C@H](OC(=O)[C@H](O)[C@@H](NC(=O)c4cccs4)c4cccs4)C(C)=C1C3(C)C)[C@]1(OC(C)=O)CO[C@@H]1C[C@@H]2O (stereo partly drawn) [Compound 3020]	< 1
CCCC(=O)N[C@@H](c1cccs1)[C@@H](O)C(=O)O[C@H]1C[C@@]2(O)[C@@H](OC(=O)c3ccccc3)C3[C@](C)(C(=O)[C@H](OC(=O)OCC)C(=C1C)C2(C)C)[C@@H](O)C[C@H]1OC[C@@]31OC(C)=O (stereo partly drawn) [Compound 3155]	< 1
CCOC(=O)O[C@H]1C(=O)[C@@]2(C)C([C@H](OC(=O)c3ccccc3)[C@]3(O)C[C@H](OC(=O)[C@H](O)[C@@H](NC(=O)OCC(C)C)c4ccco4)C(C)=C1C3(C)C)[C@]1(OC(C)=O)CO[C@@H]1C[C@@H]2O (stereo partly drawn) [Compound 3181]	< 1

Same assay, conditions: HCT116 cells, colony formation, 72 h incubation with drug, colonies counted after 7 days; ID50 = drug concentration producing 50% inhibition of colony formation; read-out: IN VITRO ID 50 (nm) HCT116

SMILES	IC50 [nM]
CCNC(=O)O[C@H]1C(=O)[C@@]2(C)C([C@H](OC(=O)c3ccccc3)[C@]3(O)C[C@H](OC(=O)[C@H](O)[C@@H](NC(=O)OC(C)(C)C)c4cccs4)C(C)=C1C3(C)C)[C@]1(OC(C)=O)CO[C@@H]1C[C@@H]2O (stereo partly drawn) [Compound 2722, 3′-Desphenyl-3′-(2-thienyl)-10-N-ethylcarbamoyl docetaxel]	< 1
CCNC(=O)O[C@H]1C(=O)[C@@]2(C)C([C@H](OC(=O)c3ccccc3)[C@]3(O)C[C@H](OC(=O)[C@H](O)[C@@H](NC(=O)OC(C)(C)C)C4CCC4)C(C)=C1C3(C)C)[C@]1(OC(C)=O)CO[C@@H]1C[C@@H]2O (stereo partly drawn) [Compound 2733]	< 10
CCNC(=O)O[C@H]1C(=O)[C@@]2(C)C([C@H](OC(=O)c3ccccc3)[C@]3(O)C[C@H](OC(=O)[C@H](O)[C@@H](NC(=O)OC(C)(C)C)c4ccc([N+](=O)[O-])cc4)C(C)=C1C3(C)C)[C@]1(OC(C)=O)CO[C@@H]1C[C@@H]2O (stereo partly drawn) [Compound 2743]	< 1
CCNC(=O)O[C@H]1C(=O)[C@@]2(C)C([C@H](OC(=O)c3ccccc3)[C@]3(O)C[C@H](OC(=O)[C@H](O)[C@@H](NC(=O)OC(C)(C)C)C4CC4)C(C)=C1C3(C)C)[C@]1(OC(C)=O)CO[C@@H]1C[C@@H]2O (stereo partly drawn) [Compound 2757]	< 1

Same assay, conditions: HCT116 colony formation; 72 h drug incubation, colonies counted after 7 days; Example 5, C-7 ester/C-10 hydroxy taxanes; read-out: IN VITRO ID 50 (nm) HCT116

SMILES	IC50 [nM]
CCC(=O)O[C@H]1C[C@H]2OC[C@@]2(OC(C)=O)C2[C@H](OC(=O)c3ccccc3)[C@]3(O)C[C@H](OC(=O)[C@H](O)[C@@H](NC(=O)c4ccco4)c4cccs4)C(C)=C([C@@H](O)C(=O)[C@@]21C)C3(C)C (stereo partly drawn) [Compound 3069]	< 1
CCC(=O)O[C@H]1C[C@H]2OC[C@@]2(OC(C)=O)C2[C@H](OC(=O)c3ccccc3)[C@]3(O)C[C@H](OC(=O)[C@H](O)[C@@H](NC(=O)OC(C)C)c4cccs4)C(C)=C([C@@H](O)C(=O)[C@@]21C)C3(C)C (stereo partly drawn) [Compound 3082]	< 1
CCCC(=O)N[C@@H](c1ccco1)[C@@H](O)C(=O)O[C@H]1C[C@@]2(O)[C@@H](OC(=O)c3ccccc3)C3[C@](C)(C(=O)[C@H](O)C(=C1C)C2(C)C)[C@@H](OC(=O)CC)C[C@H]1OC[C@@]31OC(C)=O (stereo partly drawn) [Compound 3171]	< 1
CCC(=O)O[C@H]1C[C@H]2OC[C@@]2(OC(C)=O)C2[C@H](OC(=O)c3ccccc3)[C@]3(O)C[C@H](OC(=O)[C@H](O)[C@@H](NC(=O)OCC(C)C)c4ccco4)C(C)=C([C@@H](O)C(=O)[C@@]21C)C3(C)C (stereo partly drawn) [Compound 3196]	< 10

Same assay, conditions: HCT116 colony formation; 72 h drug incubation, colonies counted after 7 days; Example 10, C-10 ester/C-7 hydroxy taxanes; read-out: IN VITRO ID 50 (nm) HCT116

SMILES	IC50 [nM]
CC(=O)O[C@@]12CO[C@@H]1C[C@H](O)[C@@]1(C)C(=O)[C@H](OC(=O)C3CC3)C3=C(C)[C@@H](OC(=O)[C@H](O)[C@@H](NC(=O)OC(C)(C)C)c4ccoc4)C[C@@](O)([C@@H](OC(=O)c4ccccc4)C12)C3(C)C (stereo partly drawn) [Compound 2781]	< 1
CC(=O)O[C@@]12CO[C@@H]1C[C@H](O)[C@@]1(C)C(=O)[C@H](OC(=O)C3CC3)C3=C(C)[C@@H](OC(=O)[C@H](O)[C@@H](NC(=O)OC(C)(C)C)c4ccsc4)C[C@@](O)([C@@H](OC(=O)c4ccccc4)C12)C3(C)C (stereo partly drawn) [Compound 2794]	< 1
CC(=O)O[C@@]12CO[C@@H]1C[C@H](O)[C@@]1(C)C(=O)[C@H](OC(=O)C3CC3)C3=C(C)[C@@H](OC(=O)[C@H](O)[C@@H](NC(=O)OC(C)(C)C)c4ccccn4)C[C@@](O)([C@@H](OC(=O)c4ccccc4)C12)C3(C)C (stereo partly drawn) [Compound 2802]	< 1
CC(=O)O[C@@]12CO[C@@H]1C[C@H](O)[C@@]1(C)C(=O)[C@H](OC(=O)C3CC3)C3=C(C)[C@@H](OC(=O)[C@H](O)[C@@H](NC(=O)OC(C)(C)C)c4ccncc4)C[C@@](O)([C@@H](OC(=O)c4ccccc4)C12)C3(C)C (stereo partly drawn) [Compound 2813]	< 1
CC(=O)O[C@@]12CO[C@@H]1C[C@H](O)[C@@]1(C)C(=O)[C@H](OC(=O)C3CC3)C3=C(C)[C@@H](OC(=O)[C@H](O)[C@@H](NC(=O)c4ccccc4)c4ccoc4)C[C@@](O)([C@@H](OC(=O)c4ccccc4)C12)C3(C)C (stereo partly drawn) [Compound 2826]	< 1
CC(=O)O[C@@]12CO[C@@H]1C[C@H](O)[C@@]1(C)C(=O)[C@H](OC(=O)C3CC3)C3=C(C)[C@@H](OC(=O)[C@H](O)[C@@H](NC(=O)c4ccccc4)c4ccsc4)C[C@@](O)([C@@H](OC(=O)c4ccccc4)C12)C3(C)C (stereo partly drawn) [Compound 2838]	< 1
CC(=O)O[C@@]12CO[C@@H]1C[C@H](O)[C@@]1(C)C(=O)[C@H](OC(=O)C3CC3)C3=C(C)[C@@H](OC(=O)[C@H](O)[C@@H](NC(=O)c4ccccc4)c4ccccn4)C[C@@](O)([C@@H](OC(=O)c4ccccc4)C12)C3(C)C (stereo partly drawn) [Compound 2844]	< 10
CC(=O)O[C@@]12CO[C@@H]1C[C@H](O)[C@@]1(C)C(=O)[C@H](OC(=O)C3CC3)C3=C(C)[C@@H](OC(=O)[C@H](O)[C@@H](NC(=O)c4ccccc4)c4ccncc4)C[C@@](O)([C@@H](OC(=O)c4ccccc4)C12)C3(C)C (stereo partly drawn) [Compound 2855]	< 1
CC(=O)O[C@@]12CO[C@@H]1C[C@H](O)[C@@]1(C)C(=O)[C@H](OC(=O)C3CC3)C3=C(C)[C@@H](OC(=O)[C@H](O)[C@@H](NC(=O)c4ccccc4)c4ccc([N+](=O)[O-])cc4)C[C@@](O)([C@@H](OC(=O)c4ccccc4)C12)C3(C)C (stereo partly drawn) [Compound 2869]	< 10
CCC(=O)O[C@H]1C(=O)[C@@]2(C)C([C@H](OC(=O)c3ccccc3)[C@]3(O)C[C@H](OC(=O)[C@H](O)[C@@H](NC(=O)c4ccco4)c4cccs4)C(C)=C1C3(C)C)[C@]1(OC(C)=O)CO[C@@H]1C[C@@H]2O (stereo partly drawn) [Compound 3053]	< 1
CC(=O)O[C@@]12CO[C@@H]1C[C@H](O)[C@@]1(C)C(=O)[C@H](OC(=O)C3CC3)C3=C(C)[C@@H](OC(=O)[C@H](O)[C@@H](NC(=O)OC(C)C)c4cccs4)C[C@@](O)([C@@H](OC(=O)c4ccccc4)C12)C3(C)C (stereo partly drawn) [Compound 3071]	< 1
CC(=O)O[C@@]12CO[C@@H]1C[C@H](O)[C@@]1(C)C(=O)[C@H](OC(=O)C3CC3)C3=C(C)[C@@H](OC(=O)[C@H](O)[C@@H](NC(=O)OCC(C)C)c4ccco4)C[C@@](O)([C@@H](OC(=O)c4ccccc4)C12)C3(C)C (stereo partly drawn) [Compound 3102]	< 1
CCCC(=O)O[C@H]1C(=O)[C@@]2(C)C([C@H](OC(=O)c3ccccc3)[C@]3(O)C[C@H](OC(=O)[C@H](O)[C@@H](NC(=O)OCC(C)C)c4ccco4)C(C)=C1C3(C)C)[C@]1(OC(C)=O)CO[C@@H]1C[C@@H]2O (stereo partly drawn) [Compound 3110]	< 1
CC(=O)O[C@@]12CO[C@@H]1C[C@H](O)[C@@]1(C)C(=O)[C@H](OC(=O)C3CC3)C3=C(C)[C@@H](OC(=O)[C@H](O)[C@@H](NC(=O)OCC(C)C)c4cccs4)C[C@@](O)([C@@H](OC(=O)c4ccccc4)C12)C3(C)C (stereo partly drawn) [Compound 3129]	< 10
CCCC(=O)N[C@@H](c1cccs1)[C@@H](O)C(=O)O[C@H]1C[C@@]2(O)[C@@H](OC(=O)c3ccccc3)C3[C@](C)(C(=O)[C@H](OC(=O)C4CC4)C(=C1C)C2(C)C)[C@@H](O)C[C@H]1OC[C@@]31OC(C)=O (stereo partly drawn) [Compound 3132]	< 1
CCCC(=O)N[C@@H](c1cccs1)[C@@H](O)C(=O)O[C@H]1C[C@@]2(O)[C@@H](OC(=O)c3ccccc3)C3[C@](C)(C(=O)[C@H](OC(=O)CCC)C(=C1C)C2(C)C)[C@@H](O)C[C@H]1OC[C@@]31OC(C)=O (stereo partly drawn) [Compound 3148]	< 1
CCC(=O)O[C@H]1C(=O)[C@@]2(C)C([C@H](OC(=O)c3ccccc3)[C@]3(O)C[C@H](OC(=O)[C@H](O)[C@@H](NC(=O)OCC(C)C)c4cccs4)C(C)=C1C3(C)C)[C@]1(OC(C)=O)CO[C@@H]1C[C@@H]2O (stereo partly drawn) [Compound 3163]	< 1
